Source: paper PMC5855764, “Analysis of Peptide Ligand Specificity of Different Insect Adipokinetic Hormone Receptors” (International Journal of Molecular Sciences, 2018)

Key:
[1] = system: seven different insect AKH receptors; assay: Aequorin-based bioluminescent calcium assay in CHO-WTA11 cells, statements for all seven receptors together; assay type: cell-based; settings: peptide at micromolar concentrations; all analysed AKHRs
Excerpt: (§1) We expressed the different insect AKH receptors in Chinese hamster ovary (CHO) WTA11 cells, stably expressing apo-aequorin, a zeocin resistance gene and the promiscuous Gα16 subunit coupling to the phospholipase C and Ca^2+ signaling cascade (Euroscreen, Brussels, Belgium). The AKH from each species elicited a clear dose-dependent response in the bioluminescent calcium assay of its conspecific receptor, with an EC50 value in the low nanomolar range (Figure 3).
(§2) We analyzed the activity of the different AKH receptors using CHO-WTA11 cells, which contain a promiscuous Gα16 subunit that will induce an intracellular Ca^2+-increase upon receptor binding independent of the receptors’ natural signaling cascade (see also [48]). […]
(§3) For transfection of the cells (T75 flasks at 60–80% confluency), we dissolved 5 µg pcDNA3.1-receptor or empty pcDNA3.1 vector in 2.5 mL Opti-MEM® (Gibco) supplemented with 12.5 µL Plus™ Reagent of the Lipofectamine LTX Kit (Invitrogen) in 5 mL polystyrene round-bottom tubes. […] We monitored ligand-induced changes in intracellular Ca^2+ in the cells as described below. […]

HylabAKHR = assay: Aequorin-based bioluminescent calcium assay in CHO-WTA11 cells; assay type: cell-based, Hylobius abietis; settings: peptide at micromolar concentrations; relative to cognate AKH
Excerpt: as §1, §2, §3

AcypiAKHR = assay: as above; assay type: cell-based, Acyrthosiphon pisum; settings: peptide at micromolar concentrations; relative to cognate AKH
Excerpt: as §1, §2, §3

TricaAKHR = assay: as above; assay type: cell-based, Tribolium castaneum; settings: peptide at micromolar concentrations; relative to cognate AKH
Excerpt: as §1, §2, §3

Substance | AKHR activation [1] | receptor activation (HylabAKHR) | receptor activation (AcypiAKHR) | receptor activation (TricaAKHR)
pQVTF--SRDWNAamide [ACP] | only very low levels of AKHR activation | – | – | –
pQ-TFQYSHGWTNamide [Crz, corazonin] | not able to activate any of the AKHRs that were analyzed to same extent as the endogenous AKHs | very limited activation | very limited activation | very limited activation
